Consider 13 molecules from patent publication US20130245064A1, “NOVEL NEUROTRYPSIN INHIBITORS” (priority 2010, published 2013).

In one data set the target is T1, human neurotrypsin (Homo sapiens, UniProt P56730).
T1 sequence (P56730 21-875): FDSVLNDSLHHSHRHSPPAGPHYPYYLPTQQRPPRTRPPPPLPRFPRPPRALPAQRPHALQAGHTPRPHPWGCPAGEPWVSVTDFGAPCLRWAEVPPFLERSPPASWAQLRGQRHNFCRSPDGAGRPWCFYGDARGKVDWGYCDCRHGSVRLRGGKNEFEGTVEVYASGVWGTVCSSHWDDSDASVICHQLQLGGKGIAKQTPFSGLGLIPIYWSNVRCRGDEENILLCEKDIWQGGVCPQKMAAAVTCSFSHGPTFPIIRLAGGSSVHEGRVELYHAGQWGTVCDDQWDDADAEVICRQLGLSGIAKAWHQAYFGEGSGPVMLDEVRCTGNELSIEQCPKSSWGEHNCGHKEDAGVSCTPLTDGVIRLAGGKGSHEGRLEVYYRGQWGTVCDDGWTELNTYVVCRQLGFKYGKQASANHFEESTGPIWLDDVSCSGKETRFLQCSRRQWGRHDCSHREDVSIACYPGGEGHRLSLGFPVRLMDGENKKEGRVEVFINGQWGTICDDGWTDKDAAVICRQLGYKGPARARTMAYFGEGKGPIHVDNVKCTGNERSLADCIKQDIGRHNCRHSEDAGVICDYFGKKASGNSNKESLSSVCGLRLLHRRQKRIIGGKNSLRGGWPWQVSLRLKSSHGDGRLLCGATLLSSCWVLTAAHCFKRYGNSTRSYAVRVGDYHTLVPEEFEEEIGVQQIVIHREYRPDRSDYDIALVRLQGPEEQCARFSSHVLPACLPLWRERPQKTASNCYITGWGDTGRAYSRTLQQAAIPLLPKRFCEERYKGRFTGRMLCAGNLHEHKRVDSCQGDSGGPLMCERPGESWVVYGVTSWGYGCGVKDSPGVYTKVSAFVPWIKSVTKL
The experiment in a line: Determination of IC50 for human neurotrypsin. In kind it is biochemical. The note with it: table of all 14 examples; read-out: Neurotrypsin IC50. How it is done: Determination of IC50 for Human Neurotrypsin
Assessment of the potency of compounds of examples 1-14 in inhibiting the enzymatic activity of human neurotrypsin was performed according to the method described in patent application […]

A value given as a limit tells only on which side of the number the result lay.

By IC50 is commonly meant the concentration that gives 50% inhibition. Take “1-(2-Hydroxy-4-(5,6-dichloro-1H-benzo[d]imidazol-2-yl)-benzoyl)-4-benzylpiperidine [Example 10]”: the IC50 at human neurotrypsin amounted to 18.3 µM.
As to “1-(2-Hydroxy-4-(5,6-dichloro-1H-benzo[d]imidazol-2-yl)-benzoyl)-4-phenoxypiperidine [Example 12]”, the IC50 at human neurotrypsin was 1.5 µM.
What is called melting point is the temperature, or range, at which the solid turns liquid. Take `O=C(Nc1ccccc1F)c1ccc(NC(=O)c2[nH]c3ccc(Cl)cc3c2-c2ccccc2)cc1O` [Example 2, N-(2-Fluorophenyl)-4-(5-chloro-3-phenyl-indole-2-carbonyl)amino-2-hydroxybenzamide]: the melting point is above 220 °C. Besides, on human neurotrypsin, the IC50 was found to be 32.8 µM.
In turn, `O=C(Nc1ccc(C(=O)Nc2ccc(Cl)cc2)c(O)c1)c1ccc(-c2ccc(F)cc2)cc1` [Example 3] displayed a melting point above 220 °C. Further, the IC50 on human neurotrypsin amounted to 7.6 µM.
On to `O=C(Nc1ccc(Cl)cc1)c1ccc(NC(=O)c2sc3ccccc3c2Cl)cc1O` [Example 4, N-(4-Chlorophenyl)-4-[(3-chlorobenzo[b]-thiophene-2-carbonyl)amino]-2-hydroxybenzamide], for which the melting point was above 220 °C. Also, the IC50 at human neurotrypsin was 55.5 µM.
On the same counts, the results for `O=C(Nc1ccc(C(=O)Nc2ccc(Cl)cc2)c(O)c1)c1ccc(Oc2ccc(Cl)c(Cl)c2)cc1` [Example 5] are above 220 °C and 13.9 µM.
Take `O=C(Nc1ccc(C(=O)Nc2ccc(Cl)cc2)c(O)c1)c1ccc(-c2ccc(F)cc2)s1` [Example 6]: the melting point is above 220 °C. Also, on human neurotrypsin, the IC50 amounted to 3.4 µM.
As to `O=C(Nc1ccc(C(=O)Nc2ccc(Cl)cc2)c(O)c1)c1ccc2cc(Cl)c(Cl)cc2n1` [Example 7, N-(4-Chlorophenyl)-4-(6,7-dichloroquinoline-2-carbonyl)amino-2-hydroxybenzamide], the melting point was above 220 °C. Also, on human neurotrypsin, the IC50 is 26.7 µM.
In the case of `O=C(Nc1ccc(Cl)cc1)c1ccc(NC(=O)c2[nH]c3ccc(Cl)cc3c2-c2ccccc2)cc1O` [Example 8, N-(4-Chlorophenyl)-4-(5-chloro-3-phenylindole-2-carbonyl)amino-2-hydroxybenzamide], the melting point is above 220 °C. In addition, at human neurotrypsin, the IC50 came to 10.8 µM.
`O=C(Nc1ccc(C(=O)Nc2ccc(Cl)cc2F)c(O)c1)c1ccc(-c2nc3cc(Cl)c(Cl)cc3[nH]2)cc1` [Example 9, N-(2-Fluoro-4-chloro-phenyl)-4-(4-(5,6-di-chloro-1H-benzo[d]imidazol-2-yl)-benzamido)-2-hydroxybenzamide] yielded a melting point above 220 °C. For the same molecule, the IC50 at human neurotrypsin was determined as 1.9 µM.
As for `O=C(Nc1ccc(C(=O)Nc2ccc(F)cc2F)c(O)c1)c1ccc(-c2nc3cc(Cl)c(Cl)cc3[nH]2)cc1` [Example 11, N-(2,4-Difluorophenyl)-4-(4-(5,6-dichloro-1H-benzo[d]imidazol-2-yl)-benzamido)-2-hydroxybenzamide], the melting point was above 220 °C. For the same molecule, at human neurotrypsin, the IC50 is 1.1 µM.
As for `CC(C)CN(CC(C)C)C(=O)c1ccc(NC(=O)c2ccc(-c3nc4cc(Cl)c(Cl)cc4[nH]3)cc2)cc1O` [Example 13, N,N-Diisobutyl-2-hydroxy-4-((5,6-dichloro-1H-benzo[d]imidazol-2-yl)-benzamido)benzamide], at human neurotrypsin, the IC50 is 55.1 µM.
For the molecule `CCCCc1ccc(NC(=O)c2ccc(NC(=O)c3ccc(-c4nc5cc(Cl)c(Cl)cc5[nH]4)cc3)cc2O)cc1` [Example 14, N-(4-Butylphenyl)-4-(4-(5,6-dichloro-1H-benzo[d]imidazol-2-yl)-benzamido)-2-hydroxybenzamide], the melting point is above 220 °C. In addition, the IC50 at human neurotrypsin was found to be 1.7 µM.
